Measured values as given in US7547687B2, “Therapeutic treatment methods” (priority 2002, dated 2009).

Experiments:
[1] = system: lethally-irradiated female B6D2F1 mice; test: Survival of lethally-irradiated mice (10 Gy total body irradiation); type: in vivo; conditions: groups of 12 animals
Experimental: Treatment of ionizing radiation exposure. The effect of selected F1Cs on survival of lethally-irradiated female B6D2F1 mice were compared to control animals treated with vehicle alone. The animals were exposed to 10 Gy of total body irradiation at 2.5 Gy/min using a ^137Cs source. […] For Group 4, test article was administered as a 50 μL volume, by intramuscular injection for three consecutive days. The formulation was a suspension containing 0.1% w/v carboxymethyl-cellulose, 0.9% w/v sodium chloride and 0.05% v/v phenol. The formulations were agitated to uniformly resuspend the F1C before syringing, and injected into animals within a few minutes of drawing into the syringe to prevent settling in the syringe.
The groups of animals were treated as follows.
The number of surviving animals is shown for day 6, 7, 12 and 21.

[2] = system: U937 human promonocytic leukemia cells; test: Microarray analysis of transcript levels in PMA-treated U937 cells exposed to BrEA; type: cell-based; conditions: for Ratio of BrEA treated cells compared to control cells (transcript level): 10 μM BrEA, PMA-treated U937 cells
Source text: Modulation of transcription. The effect of 16α-bromoepiandrosterone (“BrEA”) on transcript levels in cells in vitro was studied using a microarray to allow simultaneous monitoring of the expression of many genes to allow detailed analysis of the molecular pathways involved in biological responses to the compound.
In general, microarray technology works by covalently linking short DNA sequences that are complementary to the transcripts of many different genes on a single slide or array chip. mRNAs from test and control samples are generated and labeled with one or more colored fluorescent dyes or probes. The probes are hybridized with the array, which is then scanned by laser. The color and intensity of the fluorescent signal at each spot denotes relative expression level of each gene. The capacity of other F1Cs described herein, e.g., a F1C in compound group 1, 2, 3, 4 or 5, to modulate gene expression is characterized in a similar manner.
The array used in the experiment described below, contained about 12,000 known genes. The experiment used U937 human promonocytic leukemia cells that differentiate to monocyte/macrophage cells in the presence of phorbol-12-myristate-13-acetate (“PMA”). The U937 cells were PMA treated and then exposed to BrEA for 1 hr, 2 hrs, or 4 hrs, followed by bacterial lipopolysaccharide (“LPS”) stimulation for 1 hr, 2 hrs or 4 hrs. The level of transcripts of the genes on the array was measured at the time points using RNA prepared from BrEA-treated and control (no BrEA) cells. U937 cells were plated at 1×10^5 cells/mL in the presence of 3 ng/mL PMA (Sigma, Catalog #P-8139) for 48 hrs. Cells were then treated with either 10 μM BrEA or DMSO (vehicle) for 1 hr, 2 hr, and 4 hrs. At each time point, cells were harvested and total RNA was extracted using Qiagen Rneasy kit according to manufacturer's specification. Total RNA samples were then analyzed by Mergen Ltd. (San Leandro, Calif. www.mergen.com) to perform microarray assay.
For the microarray assay, Dnase-treated total RNA (20 micrograms) was reverse-transcribed using an oligo[(dT)24 T7 promoter]65 primer (consisting of the nucleotide binding sequence for the T7 RNA polymerase followed by 24 thymidine nucleotides). This was followed by second strand synthesis. The reaction mixture was then treated with Rnase I to digest the remaining RNA. The double-stranded cDNA was phenol-chloroform extracted and used as template for in vitro transcription (T7 MEGAscript, Ambion, Inc.) to generate biotin-labeled cRNA probes. These probes were hybridized overnight at 30° C. with continuous agitation to Mergen's ExpressChip HO5 DNA Microarray System (catalog number HO5-001) containing 12,000 genes. The arrays were then washed, and hybridized probes were detected using Mergen's cyanine-3 fluorescent dye-conjugated protein. Chips were imaged using an Affymetrix 417-418 form Affymetrix/Genetic MicroSystems (www.affymetrix.com) and spot intensity was quantitated using ImaGenefrom BioDiscovery Inc. .______
The up-regulation of many of these genes most apparent at 4 hr after treatment, at which time roughly 700 genes were within the above criteria. Some examples are shown in the following list. The ratios given in the list are from BrEA treated cells compared to control cells not treated with BrEA.

female BALB/cByJ mice = test: Delayed type hypersensitivity (DTH) response to topical oxazolone challenge, differential ear thickness; type: in vivo; conditions: 24 hours after oxazolone challenge; vehicle alone 0.225 mm
Experimental: Modulation of delayed type hypersensitivity. The capacity of F1Cs to modulate delayed type hypersensitivity (DTH) is determined in mice. Groups of five female BALB/cByJ mice (20-25 grams) are anesthetized and 100 μL of a 3% solution of oxazolone is applied on day 0 to the shaved abdomen and dried. Seven days later, on day 7, the mice are challenged by applying 5 μL of oxazolone topically to each side of the right ear. The F1C (at about 20-100 mg/mL) in vehicle is administered by subcutaneous injection (2 mg/day) one time on day 6, 24 hours before the oxazolone challenge. The vehicle as a non-aqueous suspension of the F1C in, e.g., 2% benzyl alcohol w/v, 0.1% Brij 96 w/v and equal volumes of PEG 300 and propylene glycol.
Dexamethasone in saline (0.2 mg/mL) is administered daily for 9 days (day −1 to 7), first dose 24 hours before sensitization, last dose at challenge by subcutaneous injection (0.01 mg/dose, 50 μL/injection). On Day 8, 24 hours following the oxazolone challenge, both the right and left ear thicknesses are measured using a micrometer caliper and the differences are determined. The differential ear thickness is measured as an indicator of the DTH response to topical oxazolone challenge. The DTH response is expressed as the difference in the thickness (mm) between the right and the left ears for each animal.

[3] = 0.6 mg i.m. daily for 3 consecutive days after 10 Gy
[4] = 0.6 mg s.c. daily for 3 consecutive days, first dose 2 to 4 hours after 10 Gy
[5] = 3.0 mg s.c. daily for 3 consecutive days after 10 Gy

SMILES: C[C@]12CC[C@H]3[C@@H](CC=C4C[C@@H](O)CC[C@@]43C)[C@@H]1CC[C@@H]2O [3β,17β-dihydroxyandrost-5-ene]
- number of surviving animals, day 6 [1, 3]: 12
- number of surviving animals, day 7 [1, 3]: 12
- number of surviving animals, day 12 [1, 3]: 11
- number of surviving animals, day 21 [1, 3]: 9
- number of surviving animals, day 6 [1, 4]: 12
- number of surviving animals, day 7 [1, 4]: 11
- number of surviving animals, day 12 [1, 4]: 10
- number of surviving animals, day 21 [1, 4]: 7
- number of surviving animals, day 6 [1, 5]: 12
- number of surviving animals, day 7 [1, 5]: 12
- number of surviving animals, day 12 [1, 5]: 9
- number of surviving animals, day 21 [1, 5]: 7

SMILES: C[C@]12CC[C@H]3[C@@H](CC=C4C[C@@H](O)CC[C@@]43C)[C@@H]1CC[C@@H]2N [3β-hydroxy-17β-aminoandrost-5-ene]
- number of surviving animals, day 6 [1, 4]: 12
- number of surviving animals, day 7 [1, 4]: 12
- number of surviving animals, day 12 [1, 4]: 12
- number of surviving animals, day 21 [1, 4]: 11

SMILES: C[C@]12CC[C@H](O)C[C@@H]1CC[C@@H]1[C@@H]2CC[C@]2(C)C(=O)[C@H](Br)C[C@@H]12 [BrEA, 16α-bromoepiandrosterone]
- number of genes up-regulated (at least two-fold higher than control and significantly higher than background) ([2]; 4 hr after treatment, array of about 12,000 genes): roughly 700 genes
- transcripts of Cul1 ([2]; at 1 hr): increased
- transcripts of EGR1 ([2]; at 1 hr): increased
- transcripts of USF1 ([2]; at 1 hr): increased
- transcripts of c-Fos ([2]; at 1 hr): increased
- Jun B transcript ([2]; at 4 hrs): increased
- Ratio of BrEA treated cells compared to control cells (transcript level) ([2]; gene ATF3 (Hs.460)): 5.3
- Ratio of BrEA treated cells compared to control cells (transcript level) ([2]; gene ATP2B1 (Hs.78546)): 5.4
- Ratio of BrEA treated cells compared to control cells (transcript level) ([2]; gene DUSP5 (Hs.2128)): 10.2
- Ratio of BrEA treated cells compared to control cells (transcript level) ([2]; gene EHD1 (Hs.155119)): 9.7
- Ratio of BrEA treated cells compared to control cells (transcript level) ([2]; gene GG2-1 (Hs.17839)): 10.3
- Ratio of BrEA treated cells compared to control cells (transcript level) ([2]; gene GRO2 (Hs.75765)): 9.6
- Ratio of BrEA treated cells compared to control cells (transcript level) ([2]; gene GRO3 (Hs.89690)): 124.7
- Ratio of BrEA treated cells compared to control cells (transcript level) ([2]; gene HIVEP2 (Hs.75063)): 6.6
- Ratio of BrEA treated cells compared to control cells (transcript level) ([2]; gene HSPA1B (Hs.274402)): 7.8
- Ratio of BrEA treated cells compared to control cells (transcript level) ([2]; gene IL1B (Hs.126256)): 27.5
- Ratio of BrEA treated cells compared to control cells (transcript level) ([2]; gene IL1RN (Hs.81134)): 53.0
- Ratio of BrEA treated cells compared to control cells (transcript level) ([2]; gene IL15RA (Hs.12503)): 7.6
- Ratio of BrEA treated cells compared to control cells (transcript level) ([2]; gene IL23A (Hs.98309)): 131.8
- Ratio of BrEA treated cells compared to control cells (transcript level) ([2]; gene INHBA (Hs.727)): 21.5
- Ratio of BrEA treated cells compared to control cells (transcript level) ([2]; gene KIAA1376 (Hs.24684)): 7.7
- Ratio of BrEA treated cells compared to control cells (transcript level) ([2]; gene KIAA1726 (Hs.164719)): 6.9
- Ratio of BrEA treated cells compared to control cells (transcript level) ([2]; gene LOC51285 (Hs.27018)): 5.9
- Ratio of BrEA treated cells compared to control cells (transcript level) ([2]; gene MACS (Hs.75607)): 30.0
- Ratio of BrEA treated cells compared to control cells (transcript level) ([2]; gene MAIL (Hs.301183)): 25.5
- Ratio of BrEA treated cells compared to control cells (transcript level) ([2]; gene MAP3K5 (Hs.151988)): 7.1
- Ratio of BrEA treated cells compared to control cells (transcript level) ([2]; gene MGC5618 (Hs.177781)): 32.0
- Ratio of BrEA treated cells compared to control cells (transcript level) ([2]; gene NAF1 (Hs.109281)): 6.4
- Ratio of BrEA treated cells compared to control cells (transcript level) ([2]; gene NFKBIA (Hs.81328)): 11.3
- Ratio of BrEA treated cells compared to control cells (transcript level) ([2]; gene OLR1 (Hs.77729)): 26.1
- Ratio of BrEA treated cells compared to control cells (transcript level) ([2]; gene PBEF (Hs.239138)): 9.2
- Ratio of BrEA treated cells compared to control cells (transcript level) ([2]; gene PIM2 (Hs.80205)): 14.5
- Ratio of BrEA treated cells compared to control cells (transcript level) ([2]; gene PKIG (Hs.3407)): 5.4
- Ratio of BrEA treated cells compared to control cells (transcript level) ([2]; gene PTX3 (Hs.2050)): 1348.4
- Ratio of BrEA treated cells compared to control cells (transcript level) ([2]; gene REV3L (Hs.115521)): 5.3
- Ratio of BrEA treated cells compared to control cells (transcript level) ([2]; gene RGS16 (Hs.183601)): 29.2
- Ratio of BrEA treated cells compared to control cells (transcript level) ([2]; gene RIPK2 (Hs.103755)): 6.6
- Ratio of BrEA treated cells compared to control cells (transcript level) ([2]; gene SCYA1 (Hs.72918)): 40.4
- Ratio of BrEA treated cells compared to control cells (transcript level) ([2]; gene SCYA4 (Hs.75703)): 67.3
- Ratio of BrEA treated cells compared to control cells (transcript level) ([2]; gene SCYA8 (Hs.271387)): 7.0
- Ratio of BrEA treated cells compared to control cells (transcript level) ([2]; gene SCYA20 (Hs.75498)): 174.0
- Ratio of BrEA treated cells compared to control cells (transcript level) ([2]; gene SERPINE1 (Hs.82085)): 8.4
- Ratio of BrEA treated cells compared to control cells (transcript level) ([2]; gene SOD2 (Hs.318885)): 39.7
- Ratio of BrEA treated cells compared to control cells (transcript level) ([2]; gene SSI-1 (Hs.50640)): 16.9
- Ratio of BrEA treated cells compared to control cells (transcript level) ([2]; gene STAT5A (Hs.167503)): 5.9
- Ratio of BrEA treated cells compared to control cells (transcript level) ([2]; gene STK2 (Hs.1087)): 9.0
- Ratio of BrEA treated cells compared to control cells (transcript level) ([2]; gene TNFAIP2 (Hs.101382)): 17.4
- Ratio of BrEA treated cells compared to control cells (transcript level) ([2]; gene TNFAIP3 (Hs.211600)): 5.1
- Ratio of BrEA treated cells compared to control cells (transcript level) ([2]; gene TNFAIP6 (Hs.29352)): 1733.0
- Ratio of BrEA treated cells compared to control cells (transcript level) ([2]; gene TRAF1 (Hs.2134)): 15.0
- Ratio of BrEA treated cells compared to control cells (transcript level) ([2]; gene TRG@ (Hs.112259)): 17.4

SMILES: O=P1(N(CCCl)CCCl)NCCCO1 (stereo not drawn) [cyclophosphamide]
- DTH response (differential ear thickness, right minus left ear) (female BALB/cByJ mice): 0.092 mm

SMILES: C[C@@H]1C[C@H]2[C@@H]3CCC4=CC(=O)C=C[C@]4(C)[C@@]3(F)[C@@H](O)C[C@]2(C)[C@@]1(O)C(=O)CO [dexamethasone]
- DTH response (differential ear thickness, right minus left ear) (female BALB/cByJ mice): 0.144 mm
